Literature values in patent publication US20060078955A1, “Method for retrieving delta9-THC from oral fluid” (Lin-Zhi International, priority 2004, published 2006).

Row | Compound | aqueous solubility (Jarho et al.) [µg/mL] | intrinsic aqueous solubility (hepta-substituted preparation) [% w/v]
1 | CCCCCc1cc(O)c2c(c1)OC(C)(C)[C@@H]1CCC(C)=C[C@@H]21 [Δ^9-THC, Δ^9-tetrahydrocannabinol] | 1 to 2 | 
2 | sulfobutyl-ether-β-cyclodextrin [Captisol] |  | > 50
